Results reported in patent publication US20060234276A1, “Methods of treatment of type 2 diabetes” (priority 1998, published 2006).
Peptide text beside a SMILES is read from it.

Experiments:
[1] = system: β-cells; test: Whole-cell patch-clamp calcium currents in β-cells; assay type: cell-based, mouse
Experimental: Isolation of pancreatic β-cells. Single β-cells were obtained from isolated islets dispersed by gentle trituration (120 strokes through a 200 μl pipette tip) in Ca^2+ and Mg^2+-free PBS containing […]. Cells were plated on glass coverslips and maintained in culture in RPMI containing 11.6 mM glucose for 48-96 hr.
Patch-clamp electrophysiology. Calcium current measurements were obtained in the whole-cell patch-clamp configuration. Calcium currents were activated by step depolarizations to either +10 or +20 mV for either 20 ms or 100 ms, from HP=−80 mV. All current records are corrected for leak and capacitance. The data was filtered at 2 kHz and then sampled every 100 μs. Pipette resistances were 1.5-2.5 MΩ. Series resistance was partially compensated (˜80%) using the compensation circuit of the Axopatch-1C amplifier.
Cells were incubated for 3-4 hr in RPMI at 37° C. in either 0.1% DMSO (control) or 100 μM ALLM and then transferred for a further 1-2 hr to KRB containing similar concentrations of DMSO or ALLM. For recording, cells were bathed in a solution containing (in mM): 145 NaCl, 2 KCl, 1 MgCl2, 2 glucose, 10 HEPES, 10 CaCl2, pH 7.3 (adjusted with NaOH) and either DMSO or ALLM. […]

[2] = system: islets; test: Insulin content of islets after 48 h inhibitor exposure; assay type: cell-based, mouse; conditions: 48 hours treatment
[3] = system: calpain; test: Calpain activity in mouse pancreatic islets (Boc-Leu-Met-CMAC cleavage); assay type: cell-based
[4] = system: mouse islets; test: Glucose utilization and oxidation rates in islets; assay type: cell-based
Experimental: Glucose utilization and oxidation rates. Glucose utilization and oxidation rates were measured as previously described (Dukes et al., 1998; Zhou et al., 1996) in mouse islets cultured as described above in the presence or absence of calpain inhibitors.

[5] = system: rat soleus muscle strips; test: 2-Deoxyglucose uptake into soleus muscle strips; assay type: cell-based; conditions: 100 μM ALLM or 200 μM E-64-d
Experimental: 2-Deoxyglucose uptake into skeletal muscle and adipose tissue. 2-deoxyglucose (2-DOG) uptake by isolated strips of soleus muscle from normal Wistar rats was measured using a modification of a previously described protocol (Burant et al., 1984). […] Muscles were then extracted and 2-DOG uptake calculated as previously described (Burant et al., 1984).

[6] = system: rat adipocytes; test: 2-Deoxyglucose uptake into adipocytes; assay type: cell-based; conditions: 100 μM ALLM or 200 μM E-64-d
Experimental: Adipocytes were isolated from epididymal fat pads of 3 month old male Wistar rats as described previously (Robdell, 1964) with the following modification: fat pads were minced to 1-2 mm pieces and incubated for ˜25 min at 37° C. with collagenase I (1 mg/ml, Worthington Biochemicals, Lakewood, N.J.) in KRB containing 10 mM Hepes (pH 7.4), 0.2% BSA and 2 mM sodium pyruvate. The cell suspension was filtered through a nylon mesh (134 μM, Spectrum Lab., Laguna Hills, Calif.) washed three times by floating and allowed to rest for 45 min in the KRB. […] Then another 50 μl of KRB containing 5 mM 2-DOG (final concentration 1 mM), 0.5 μCi of 2-deoxy-[2,6-^3H]glucose was added and cells were incubated for a further 5 min at 25° C. The transport was stopped by adding cytochalasin B (final concentration 50 μM) and cells were spun through 250 μl of dinonyl phthalate oil (Fisher Scientific, Pittsburgh, Pa.). Cells were then transferred to scintillation vials for counting.

[7] = system: perifused mouse islets; test: Insulin secretion from perifused islets; assay type: cell-based; conditions: 4 hr preincubation; 100 μM ALLM, 200 μM E-64-d
Experimental: Insulin secretion from perifused islets. Insulin secretion from perifused islets was measured using a modification of a previously described protocol (Pontoglio et al., 1998; Sreenan et al., 1998).

[8] = system: soleus muscle strips; test: Glycogen synthesis rates in skeletal muscle; assay type: cell-based, rat; conditions: 100 μM ALLM or 200 μM E-64-d
From the text: Glycogen synthesis rates in skeletal muscle.

[9] = system: mouse islets; test: Islet NAD(P)H autofluorescence response; assay type: cell-based
Experimental: Measurement of islet [Ca^2+]i, and NAD(P)H. Islet [Ca^2+]i and NAD(P)H were measured as previously described (Pontoglio et al., 1998; Dukes et al., 1998).

[10] = system: mouse pancreatic islets; test: Static incubation of isolated pancreatic islets, insulin secretion; assay type: cell-based
Experimental: Static incubation of isolated pancreatic islets. Isolation of mouse pancreatic islets was accomplished using collagenase digestion as previously described (Pontoglio et al., 1998). […] Triplicate groups of 5 islets were then incubated in borosilicate tubes containing 1 ml of KRB with the same concentration of inhibitor and various insulin secretagogues for one hour in a moving water bath at 37° C. The reaction was stopped by placing the tubes on ice and an aliquot of the buffer was removed for measurement of insulin levels. Control studies, in which the incubation mixture contained vehicle (0.1% DMSO) only, were performed using aliquots of the same batch of islets
Assay methods. Insulin concentrations were measured by a double antibody radioimmunoassay using a rat insulin standard. The intra-assay coefficient of variation for this technique is 7%. All samples were assayed in duplicate.

For `CSCC[C@@H](C=O)NC(=O)[C@H](CC(C)C)NC(=O)[C@H](CC(C)C)NC(C)=O` [ALLM, N-Ac-Leu-Leu-methioninal] (Ac-Leu-Leu-Met-aldehyde), the “average peak calcium current density” value ([1]; ALLM 100 μM pre-treated cells, n=15) was 36.7±3.9 pA/pF, the whole-cell calcium currents ([1]; ALLM 100 μM pre-treated vs control cells) was “similar” and the “insulin content in islets vs control islets” value [2] was “comparable”. The “area under the curve of rate of generation of fluorescent calpain product” value ([3]; 200 μM inhibitor, 4 hr incubation) was 35±4 % of control values, the “residual calpain activity in intact islets” value ([3]; 48 h treatment, 100 μM ALLM or 200 μM E-64-d) was 54±3 % of control treated islets and the “rate of glucose utilization at basal glucose” value ([4]; 2 mM glucose, 100 μM ALLM or 200 μM E-64-d, 4 h) was 14.5±3.6 pmol/islet/hr. The “rate of glucose utilization at stimulatory glucose” value ([4]; 20 mM glucose, 100 μM ALLM or 200 μM E-64-d, 4 h) was 89.5±3.0 pmol/islet/hr, the “rate of basal glucose utilization and oxidation at 3.3 mM glucose” value ([4]; 48 h treated islets) was “no significant changes” and the “rates of glycolysis and glucose oxidation at stimulating concentrations of glucose” value ([4]; 48 h treated islets vs controls) was “significantly reduced”. For the same compound, the “glucose oxidation rate at basal glucose” value ([4]; basal glucose, ALLM or E-64-d, 4 h) was 6.0±0.7 pmol/islet/hr, the “glucose oxidation rate at stimulatory glucose” value ([4]; stimulatory glucose, ALLM or E-64-d, 4 h) was 39.5±4.1 pmol/islet/hr and the “2-deoxyglucose uptake into soleus muscle strips with insulin” value ([5]; insulin 12 nM) was 0.34±0.05 (mol/ml H20/30 mins. For the same compound, the “2-deoxyglucose uptake into soleus muscle strips without insulin” value ([5]; no insulin) was 0.28±0.04 (mol/ml H20/30 mins, the “2-DOG uptake into adipocytes with insulin” value ([6]; insulin 12 nmol/L) was 751±71 pmol/2×10^5 cells/5 min and the “2-DOG uptake into adipocytes without insulin” value ([6]; no insulin) was 598±102 pmol/2×10^5 cells/5 min. For the same compound, the “enhancement of insulin secretory response to 20 mM glucose in dynamic islet perifusion” value [7] was “also observed”, the “magnitude of insulin-induced increase in muscle glycogen synthesis” value ([8]; insulin 6 nM) was 0.13±0.03 nmol glucose/mg/hr and the “rate of muscle glycogen synthesis with insulin” value ([8]; insulin 6 nM) was 0.40±0.05 nmol glucose/mg/hr. The “rate of muscle glycogen synthesis without insulin” value ([8]; no insulin) was 0.27±0.03 nmol glucose/mg/hr, the “NAD(P)H response to increase in glucose from 2 to 14 mM” value ([9]; 100 μM ALLM or E-64-d, 4 hr preincubation) was 2.7±0.4 fold increase and the “NAD(P)H responses to KIC vs control” value ([9]; 48 h treated islets) was “significantly reduced”. The “NAD(P)H responses to glucose vs control” value ([9]; 48 h treated islets) was “comparable”, the “insulin secretory response to 30 mM KCl” value ([10]; 100 μM ALLM, 4 hr, 2 mM glucose) was “did not however significantly increase” and the “insulin secretory response to 100 μM carbachol (CCh)” value ([10]; 100 μM ALLM, 4 hr, 8 mM glucose) was “did not however significantly increase”. The “increase of insulin secretory response to 50 nM GLP-1” value ([10]; 100 μM ALLM, 8 mM glucose) was 1.55±0.2 fold, the “insulin secretory response to 20 mM glucose after recovery” value ([10]; 48-h treatment, then 2 days recovery without inhibitor) was “essentially normal insulin secretory response” and the “effect on insulin secretion at 2 mM glucose” value ([10]; 4 hr exposure, ALLM 250 μM, E-64-d 200 μM, 2 mM glucose) was “not observed”. For the same compound, the “increase of insulin secretory response to 20 mM glucose” value ([10]; 4 hr exposure, ALLM 250 μM, E-64-d 200 μM, 20 mM glucose, mean±SEM) was 1.97±0.3 fold, the “inhibition of 20 mM glucose-stimulated insulin secretion” value ([10]; 48 h, 100 μM ALLM (so in the source), 50 μM MDL28170) was 88±9% and the “basal insulin secretion (2 mM glucose) vs control-treated islets” value ([10]; 48 hours exposure) was “no significant difference”. For the same compound, the “insulin secretory response to carbachol” value ([10]; 48 h treated islets) was “attenuated”, the “insulin secretory response to glyceraldehyde” value ([10]; 48 h treated islets) was “responded normally” and the “insulin secretory response to mastoparan” value ([10]; 48 h treated islets) was “attenuated”. The “insulin-secretory response to keto-isocaproic acid (KIC)” value ([10]; 48 h treated islets) was “decreased”, the “insulin secretory responses to glucose (summary statement of Example 8)” value ([10]; isolated mouse islets, introductory summary, no conditions given) was “reduces insulin secretory responses” and the “concentration at which inhibition of insulin secretion was achieved (dose response)” value ([10]; long-term exposure, glucose stimulated insulin secretion) was 25 µM.
